The values that follow come from patent US10294246B2, “Substituted boronic acids and boronate esters as immunoproteasome inhibitors” (MERCK PATENT GMBH, priority 2014, dated 2019).

For experiment [1], the target named is human immunoproteasome (LMP7) (Homo sapiens (Human), UniProt P28062). As to the kind of experiment: Determination of LMP7 activity (fluorescence intensity assay, Suc-LLVY-AMC). The experiment is classed as biochemical. To be noted: for Selectivity LMP7 vs Beta5: LMP7 versus Beta5; for IC50: purified human immunoproteasome 0.25 nM, Suc-LLVY-AMC 40 μM. Summed up:
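0.25 nM purified human immunoproteasome preincubated 20 min at 25 °C with serially diluted compounds in 50 mM Tris pH 7.4, 0.03% SDS, 1 mM EDTA, 1% DMSO. Reaction started with 40 μM Suc-LLVY-AMC, run 60 min at 37 °C. Fluorescence read at ex 350/em 450 nm.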

Experiment [2] concerns the target human constitutive proteasome (Beta5) (Homo sapiens (Human), UniProt P28074). Kind of experiment: Determination of Beta5 activity (fluorescence intensity assay, Suc-LLVY-AMC). In kind it is biochemical. To be noted: purified human constitutive proteasome 1.25 nM, Suc-LLVY-AMC 40 μM. Summed up:
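Purified constitutive proteasome (1.25 nM) was preincubated with compounds 20 min at 25 °C in 50 mM Tris pH 7.4, 0.03% SDS, 1 mM EDTA, 1% DMSO. Suc-LLVY-AMC (40 μM) was then added for 60 min at 37 °C. AMC fluorescence was read at ex 350/em 450 nm.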

Some results are limits rather than exact numbers.

For the compound `COCc1cccc(CC(=O)N[C@@H](Cc2coc3ccccc23)B(O)O)c1` [Compound No. 49, [(1R)-2-(benzofuran-3-yl)-1-[[2-[3-(methoxymethyl)phenyl]acetyl]-amino]ethyl]boronic acid], the “Selectivity LMP7 vs Beta5” value in experiment [1] is recorded as “+++++ (Selectivity ≥ 100)”. Also, the IC50 was under 50 nM in experiment [1] and 50 to 500 nM in experiment [2].
In the same order, the values of `O=C(N[C@@H](Cc1coc2ccccc12)B(O)O)C(F)(F)c1ccccc1` [Compound No. 23, [(1R)-2-(benzofuran-3-yl)-1-[(2,2-difluoro-2-phenyl-acetyl)amino]-ethyl]boronic acid] are “+++++ (Selectivity ≥ 100)”, under 50 nM and 500 to 5000 nM.
In the same order, the values of `COc1ccc(OC)c(CC(=O)N[C@@H](Cc2coc3c(C)cccc23)B(O)O)c1` [Compound No. 78, [(1R)-1-[[2-(2,5-dimethoxyphenyl)acetyl]amino]-2-(7-methylbenzofuran-3-yl)ethyl]boronic acid] are “+++++ (Selectivity ≥ 100)”, under 50 nM and 500 to 5000 nM.
The corresponding values for `COc1ccc(CC(=O)N[C@@H](Cc2coc3c(C)ccc(C)c23)B(O)O)cc1` [Compound No. 129, [(1R)-2-(4,7-dimethylbenzofuran-3-yl)-1-[[2-(4-methoxyphenyl)-acetyl]amino]ethyl]boronic acid] are “+++++ (Selectivity ≥ 100)”, under 50 nM and 500 to 5000 nM.
For `O=C(Cc1ccccc1)N[C@@H](Cc1coc2c(Cl)cccc12)B(O)O` [Compound No. 85, [(1R)-2-(7-chlorobenzofuran-3-yl)-1-[(2-phenylacetyl)amino]ethyl]-boronic acid], in experiment [1], the “Selectivity LMP7 vs Beta5” value was “+++++ (Selectivity ≥ 100)” and the half-maximal inhibitory concentration (IC50) is under 50 nM. Further, the IC50 in experiment [2] is 500 to 5000 nM.
In the same order, the values of `CCO[C@@H](C(=O)N[C@@H](CC1COc2c(C)cccc21)B(O)O)c1ccccc1` (stereo partly drawn) [Compound No. 109, [(1R)-1-[[(2R)-2-ethoxy-2-phenyl-acetyl]amino]-2-(7-methyl-2,3-dihydrobenzofuran-3-yl)ethyl]boronic acid] are “+++++ (Selectivity ≥ 100)”, under 50 nM and over 5000 nM.
The corresponding values for `Cc1ccc(C[C@H](NC(=O)Cc2ccc(N(C)C)cc2)B(O)O)c(C)c1` [Compound No. 44, [(1R)-1-[[2-(4-dimethylaminophenyl)acetyl]amino]-2-(2,4-dimethylphenyl)ethyl]boronic acid] are “+++++ (Selectivity ≥ 100)”, under 50 nM and over 5000 nM.
As for `O=C(Cc1cccnc1)N[C@@H](Cc1coc2ccccc12)B(O)O` [Compound No. 8, [(1R)-2-(benzofuran-3-yl)-1-[[2-(3-pyridyl)acetyl]amino]ethyl]boronic acid], in experiment [1], the “Selectivity LMP7 vs Beta5” value was “+++ (50 ≤ Selectivity < 70)” and the 50% inhibitory concentration (IC50) is under 50 nM. Moreover, the half-maximal inhibitory concentration (IC50) in experiment [2] is 50 to 500 nM.
The corresponding values for `O=C(N[C@@H](Cc1coc2ccccc12)B(O)O)[C@H](CO)c1ccccc1` [Compound No. 57, [(1R)-2-(benzofuran-3-yl)-1-[[(2S)-3-hydroxy-2-phenyl-propanoyl]-amino]ethyl]boronic acid] are “+++++ (Selectivity ≥ 100)”, under 50 nM and 500 to 5000 nM.
In the same order, the values of `CCO[C@@H](C(=O)N[C@@H](CC1COc2ccccc21)B(O)O)c1ccccc1` (stereo partly drawn) [Compound No. 111, [(1R)-2-(2,3-dihydrobenzofuran-3-yl)-1-[[(2R)-2-ethoxy-2-phenyl-acetyl]amino]ethyl]boronic acid] are “+++++ (Selectivity ≥ 100)”, under 50 nM and over 5000 nM.
Regarding `O=C(Cc1cccc(OCCCO)c1)N[C@@H](Cc1coc2ccccc12)B(O)O` [Compound No. 31, [(1R)-2-(benzofuran-3-yl)-1-[[2-[3-(3-hydroxypropoxy)phenyl]acetyl]-amino]ethyl]boronic acid], in experiment [1], the “Selectivity LMP7 vs Beta5” value was “++++ (70 ≤ Selectivity < 100)” and the half-inhibitory concentration (IC50) is under 50 nM. This compound had a concentration for half-maximal inhibition (IC50) in experiment [2] of 50 to 500 nM.
For `CCOc1ccc(CC(=O)N[C@@H](Cc2coc3ccccc23)B(O)O)nc1` [Compound No. 13, [(1R)-2-(benzofuran-3-yl)-1-[[2-(5-ethoxy-2-pyridyl)acetyl]amino]-ethyl]boronic acid], in experiment [1], the “Selectivity LMP7 vs Beta5” value is listed as “+++++ (Selectivity ≥ 100)” and the IC50 was under 50 nM. This compound also came in with an IC50 in experiment [2] of 50 to 500 nM.
The corresponding values for `C[C@@H](C(=O)N[C@@H](C[C@@H]1COc2ccccc21)B(O)O)c1ccccc1C(=O)N(C)C` [Compound No. 99, [(1R)-2-[(3S)-2,3-dihydrobenzofuran-3-yl]-1-[[(2R)-2-[2-(dimethylcarbamoyl)phenyl]propanoyl]amino]ethyl]boronic acid] are “+++++ (Selectivity ≥ 100)”, 50 to 500 nM and over 5000 nM.
Consider `COc1ccc(CC(=O)N[C@H](C[C@H]2COc3ccccc32)B(O)O)cc1` [Compound No. 118, [(1S)-2-[(3R)-2,3-dihydrobenzofuran-3-yl]-1-[[2-(4-methoxyphenyl)-acetyl]amino]ethyl]boronic acid], for which, in experiment [1], the “Selectivity LMP7 vs Beta5” value is given as “+++++ (Selectivity ≥ 100)” and the IC50 is 50 to 500 nM. Further, the half-maximal inhibitory concentration (IC50) in experiment [2] was over 5000 nM.
In the same order, the values of `C[C@H](C(=O)N[C@@H](C[C@H]1COc2ccccc21)B(O)O)c1ccccc1C(=O)N(C)C` [Compound No. 106, [(1R)-2-[(3R)-2,3-dihydrobenzofuran-3-yl]-1-[[(2S)-2-[2-(dimethylcarbamoyl)phenyl]propanoyl]amino]ethyl]boronic acid] are “+++++ (Selectivity ≥ 100)”, under 50 nM and over 5000 nM.
Consider `Cc1ccc(C[C@H](NC(=O)[C@H](O)c2ccccc2)B(O)O)cc1` [Compound No. 16, [(1R)-1-[[(2R)-2-hydroxy-2-phenyl-acetyl]amino]-2-(p-tolyl)ethyl]-boronic acid], for which, in experiment [1], the “Selectivity LMP7 vs Beta5” value was “++ (10 ≤ Selectivity < 50)” and the IC50 was 50 to 500 nM. Further, the IC50 in experiment [2] is 500 to 5000 nM.
In the same order, the values of `O=C(Cc1ccccc1)N[C@@H](C[C@H]1COc2c(Cl)cccc21)B(O)O` [Compound No. 133, [(1R)-2-[(3R)-7-chloro-2,3-dihydrobenzofuran-3-yl]-1-[(2-phenylacetyl)amino]ethyl]boronic acid] are “++ (10 ≤ Selectivity < 50)”, 500 to 5000 nM and over 5000 nM.
In the same order, the values of `O=C(Cc1ccccc1OC1CCOCC1)N[C@@H](Cc1coc2ccccc12)B(O)O` [Compound No. 54, [(1R)-2-(benzofuran-3-yl)-1-[[2-(2-tetrahydropyran-4-yloxyphenyl)-acetyl]amino]ethyl]boronic acid] are “+++++ (Selectivity ≥ 100)”, under 50 nM and 50 to 500 nM.
For the compound `O=C(Cc1ccccc1)N[C@@H](Cc1cc2ccccc2o1)B(O)O` [Compound No. 110, [(1R)-2-(benzofuran-2-yl)-1-[(2-phenylacetyl)amino]ethyl]boronic acid], in experiment [1], the “Selectivity LMP7 vs Beta5” value was “++++ (70 ≤ Selectivity < 100)” and the IC50 lay within 50 to 500 nM. The compound also returned an IC50 in experiment [2] of over 5000 nM.
In the same order, the values of `O=C(Cc1ccc(OCCO)cc1)N[C@@H](Cc1coc2ccccc12)B(O)O` [Compound No. 39, [(1R)-2-(benzofuran-3-yl)-1-[[2-[4-(2-hydroxyethoxy)phenyl]acetyl]-amino]ethyl]boronic acid] are “+++++ (Selectivity ≥ 100)”, under 50 nM and 50 to 500 nM.
In the case of `COc1ccc(CC(=O)N[C@H](C[C@@H]2COc3ccccc32)B(O)O)cc1` [Compound No. 117, [(1S)-2-[(3S)-2,3-dihydrobenzofuran-3-yl]-1-[[2-(4-methoxyphenyl)-acetyl]amino]ethyl]boronic acid], in experiment [1], the “Selectivity LMP7 vs Beta5” value is listed as “+++++ (Selectivity ≥ 100)” and the IC50 was in the range of 50 to 500 nM. The compound also returned a 50% inhibitory concentration (IC50) in experiment [2] of over 5000 nM.
Take `O=C(COc1ccccc1)N[C@@H](Cc1ccccc1)B(O)O` [Compound No. 3, [(1R)-1-[(2-phenoxyacetyl)amino]-2-phenyl-ethyl]boronic acid]: in experiment [1], the “Selectivity LMP7 vs Beta5” value is recorded as “++ (10 ≤ Selectivity < 50)” and the IC50 was under 50 nM. The IC50 in experiment [2] was 50 to 500 nM.
For `Cc1cccc2c(C[C@@H](NC(=O)[C@@H](CO)c3ccccc3)B(O)O)coc12` [Compound No. 84, [(1S)-1-[[(2R)-3-hydroxy-2-phenyl-propanoyl]amino]-2-(7-methylbenzofuran-3-yl)ethyl]boronic acid], in experiment [1], the “Selectivity LMP7 vs Beta5” value is listed as “++ (10 ≤ Selectivity < 50)” and the 50% inhibitory concentration (IC50) was 500 to 5000 nM. Further, the IC50 in experiment [2] was over 5000 nM.
In the same order, the values of `O=C(Cc1ccc(N2CCCC2=O)cc1)N[C@@H](Cc1coc2ccccc12)B(O)O` [Compound No. 64, [(1R)-2-(benzofuran-3-yl)-1-[[2-[4-(2-oxopyrrolidin-1-yl)phenyl]acetyl]-amino]ethyl]boronic acid] are “+++ (50 ≤ Selectivity < 70)”, under 50 nM and 50 to 500 nM.
